According to article PMC8110578, “Phenylethynylbenzyl-modified biguanides inhibit pancreatic cancer tumor growth” (Scientific Reports, 2021):

Legend:
cancer cells = details: cited from earlier work
[1] = test system: NAD+/NADH ratio in PSN1 cells; assay: NAD/NADH quantification, PSN1 cells; type: cell-based; details: 15 µM, 6 h
Procedure: All chemicals were purchased from Aldrich Chemicals in their highest purity and used without further purification. Deuterated dimethylsulfoxide (DMSO-d^6) and deuterated chloroform (CDCl3) were purchased from CDN Isotopes. NMR spectra were recorded on Bruker advance 400 and 100 spectrometers. Coupling constants are given in hertz (Hz) and chemical shifts are given in parts per million (ppm, δ) measured relative to the residual solvent (the multiplicity of the signals are given as s: singlet, d: doublet, t: triplet, and m: multiplet). High-resolution mass spectra (HRMS) were recorded on a TSQ Quantum Ultra (Thermo Scientific) triple quadrupole with accurate mass option instrument (Université de Montréal Mass Spectrometry Facility). […] Transport and depolarization studies as well as absorbance measurements were performed on a Varian Cary Eclipse fluorescence spectrophotometer. The hemolysis assays were performed on a Fluostar Optima plate reader. […] A suitable crystal was selected and analysed on a Bruker Venture Metaljet diffractometer. Crystal violet retention assay was used for cell growth assays and IC50 were determined using Prism (GraphPad). NAD/NADH quantitation colorimetric kit (#K337-100) from Biovision was used according to manufacturer’s instructions. ECAR (extracellular acidification rate) and OCR of KP4 cells (oxygen consumption rate) were measured on a Seahorse XF-24 (Agilent). […]

[2] = Lucigenin assay, chloride transport in EYPC liposomes; details: lucigenin-containing liposomes
Description: Phospholipid vesicles can be used as models for studying membrane insertion and permeabilization. Using an anion-selective probe in synthetic phospholipid liposomes, anion transport can be monitored by fluorescence. […] This basification was further enhanced with the addition of a base pulse to the external solution at 300 s, indicating either a transport of protons to the extravesicular solution, or the transport of hydroxyls to the intravesicular solution. This was also reported for alkylbiguanidium salts and was described as an electrogenic process, i.e. the transmembrane transport of an ion without the balance of the charge through the movement of another ion, which usually results in a charge transfer. […] […]. The transport of H^+/OH^− ions across the membrane is an electrogenic mechanism that usually causes the depolarization of the electrochemical gradient across phospholipid membranes. When EYPC-LUVs liposomes containing intravesicular K^+ ions are bathing in an extravesicular solution containing Na^+ ions a small membrane potential is generated at their membranes, and the fluorescence of Safranin-O can be used as a membrane potential probe. […].
Experimental. […] The fluorescence was monitored for 350 s.

Compound	Reported antiproliferative concentration in vitro (cancer cells)	Decrease of NAD+/NADH ratio [1]	Chloride transport across EYPC-LUV membrane [2]
CN(C)C(=N)NC(=N)N [metformin, 1,1-dimethylbiguanide, reference compound]	5 mM		
N=C(N)NC(=N)NCc1ccc(C#Cc2ccccc2)cc1 [1b, 4-(phenylethynyl)benzylbiguanide]		25%	did not transport chloride
